Data on 22 compounds can be found in patent US10092575B2, “Substituted thiophene- and furan-fused azolopyrimidine-5-(6H)-one compounds” (DART NEUROSCIENCE (CAYMAN) LTD., priority 2012, dated 2018).

Where only a bound is given, the exact number is not on record here.

The target in the first assay is human PDE1b enzyme (Homo sapiens (Human), UniProt Q01064). The assay can be described thus: PDE1b inhibitory assay (IMAP TR-FRET).
Conditions: not given
Compound `COc1ccc(Cn2c(=O)n3ncnc3c3c4c(sc32)N(C(=O)c2ccccc2)CCC4)cc1OC` [Example 176, 8-Benzoyl-6-(3,4-dimethoxybenzyl)-8,9,10,11-tetrahydropyrido[3′,2′:4,5]thieno[3,2-e][1,2,4]triazolo[1,5-c]pyrimidin-5(6H)-one] had an EC50 of 1000 to 10000 nM.

Regarding `COc1ccc(Cn2c(=O)n3ncnc3c3c4c(sc32)CN(CC2CNCCO2)CC4)cc1` (stereo not shown) [Example 180, 6-(4-Methoxybenzyl)-9-(morpholin-2-ylmethyl)-8,9,10,11-tetrahydropyrido[4′,3′:4,5]thieno[3,2-e][1,2,4]triazolo[1,5-c]pyrimidin-5(6H)-one], the EC50 was 100 to 1000 nM.

In turn, `COc1ccc(Cn2c(=O)n3ncnc3c3c4c(sc32)CN(C(=O)C2CCNC2)CC4)cc1` (stereo not shown) [Example 181, 6-(4-Methoxybenzyl)-9-(pyrrolidine-3-carbonyl)-8,9,10,11-tetrahydropyrido[4′,3′:4,5]thieno[3,2-e][1,2,4]triazolo[1,5-c]pyrimidin-5(6H)-one] returned an EC50 of 100 to 1000 nM.

In turn, `COc1ccc(Cn2c(=O)n3ncnc3c3c4c(sc32)CN(CC2CCNCC2)CC4)cc1` [Example 182, 6-(4-Methoxybenzyl)-9-(piperidin-4-ylmethyl)-8,9,10,11-tetrahydropyrido[4′,3′:4,5]thieno[3,2-e][1,2,4]triazolo[1,5-c]pyrimidin-5(6H)-one] came in with an EC50 of 100 to 1000 nM.

With `COc1ccc(Cn2c(=O)n3ncnc3c3c4c(sc32)CNCC4)cc1` [Example 183, 6-(4-Methoxybenzyl)-8,9,10,11-tetrahydropyrido[4′,3′:4,5]thieno[3,2-e][1,2,4]triazolo[1,5-c]pyrimidin-5(6H)-one], the concentration giving a half-maximal response (EC50) is 100 to 1000 nM.

In the case of `COc1ccc(Cn2c(=O)n3ncnc3c3c4c(sc32)CCNC4)cc1` [Example 184, 6-(4-Methoxybenzyl)-8,9,10,11-tetrahydropyrido[3′,4′:4,5]thieno[3,2-e][1,2,4]triazolo[1,5-c]pyrimidin-5(6H)-one], the EC50 lay within 100 to 1000 nM.

`COc1ccc(Cn2c(=O)n3ncnc3c3cc(CN4CCC(Oc5ccncc5)CC4)sc32)cc1` [Example 185, 6-(4-Methoxybenzyl)-8-((4-(pyridin-4-yloxy)piperidin-1-yl)methyl)thieno[3,2-e][1,2,4]triazolo[1,5-c]pyrimidin-5(6H)-one]: the EC50 is 100 to 1000 nM.

`COc1ccc(Cn2c(=O)n3ncnc3c3cc(CN4CCN(c5ccc(F)cc5)CC4)sc32)cc1` [Example 188, 8-((4-(4-Fluorophenyl)piperazin-1-yl)methyl)-6-(4-methoxybenzyl)thieno[3,2-e][1,2,4]triazolo[1,5-c]pyrimidin-5(6H)-one] showed an EC50 of 100 to 1000 nM.

In the case of `COc1ccc(Cn2c(=O)n3ncnc3c3cc(CN4CC(Oc5ccccc5F)C4)sc32)cc1` [Example 190, 8-((3-(2-Fluorophenoxy)azetidin-1-yl)methyl)-6-(4-methoxybenzyl)thieno[3,2-e][1,2,4]triazolo[1,5-c]pyrimidin-5(6H)-one], the EC50 was in the range of 1000 to 10000 nM.

Staying with this assay, now noted: negative log of half-maximal molar inhibitory concentration; 200 nM FAM-cAMP; reported as ranges.
As for `O=C(C1CC1)N1CCc2c(sc3c2c2ncnn2c(=O)n3Cc2ccc(Cl)cc2F)C1` [Example 164, 6-(4-Chloro-2-fluorobenzyl)-9-(cyclopropanecarbonyl)-8,9,10,11-tetrahydropyrido[4′,3′:4,5]thieno[3,2-e][1,2,4]triazolo[1,5-c]pyrimidin-5(6H)-one], the “PDE1b (pEC50)” value is greater than 7.

Take `COc1ccc(Cn2c(=O)n3ncnc3c3c4c(sc32)CN(C(=O)C2CCOC2)CC4(F)F)cc1` (stereo not shown) [Example 166, 11,11-Difluoro-6-(4-methoxybenzyl)-9-(tetrahydrofuran-3-carbonyl)-8,9,10,11-tetrahydropyrido[4′,3′:4,5]thieno[3,2-e][1,2,4]triazolo[1,5-c]pyrimidin-5 (6H)-one]: the “PDE1b (pEC50)” value is recorded as greater than 7.

`COc1ccc(Cn2c(=O)n3ncnc3c3c4c(sc32)CN(C(=O)C2CCOC2)CC4)c(F)c1` (stereo not shown) [Example 167, 6-(2-Fluoro-4-methoxybenzyl)-9-(tetrahydrofuran-3-carbonyl)-8,9,10,11-tetrahydropyrido[4′,3′:4,5]thieno[3,2-e][1,2,4]triazolo[1,5-c]pyrimidin-5(6H)-one]: the “PDE1b (pEC50)” value is listed as greater than 7.

For the compound `COc1ccc(Cn2c(=O)n3ncnc3c3c4c(sc32)CN(C(=O)C2CC2)CC4)c(F)c1` [Example 168, 9-(Cyclopropanecarbonyl)-6-(2-fluoro-4-methoxybenzyl)-8,9,10,11-tetrahydropyrido[4′,3′:4,5]thieno[3,2-e][1,2,4]triazolo[1,5-c]pyrimidin-5(6H)-one], the “PDE1b (pEC50)” value is reported as greater than 7.

On to `COc1ccc(Cn2c(=O)n3ncnc3c3c4c(sc32)CN(C(=O)[C@@H]2CCOC2)CC4)cc1` [Example 169, (R)-6-(4-Methoxybenzyl)-9-(tetrahydrofuran-3-carbonyl)-8,9,10,11-tetrahydropyrido[4′,3′:4,5]thieno[3,2-e][1,2,4]triazolo[1,5-c]pyrimidin-5(6H)-one], for which the “PDE1b (pEC50)” value is given as greater than 7.

For `COc1ccc(Cn2c(=O)n3ncnc3c3c4c(sc32)CN(C(=O)C2CCOC2)CC4)cc1` (stereo not shown) [Example 170, 6-(4-Methoxybenzyl)-9-(tetrahydrofuran-3-carbonyl)-8,9,10,11-tetrahydropyrido[4′,3′:4,5]thieno[3,2-e][1,2,4]triazolo[1,5-c]pyrimidin-5(6H)-one], the “PDE1b (pEC50)” value was greater than 7.

Turning to `COc1ccc(Cn2c(=O)n3ncnc3c3c4c(sc32)N(C(=O)C2CC2)CCC4)cc1` [Example 174, 8-(Cyclopropanecarbonyl)-6-(4-methoxybenzyl)-8,9,10,11-tetrahydropyrido[3′,2′:4,5]thieno[3,2-e][1,2,4]triazolo[1,5-c]pyrimidin-5(6H)-one], the “PDE1b (pEC50)” value is listed as greater than 7.

For the compound `COc1ccc(Cn2c(=O)n3ncnc3c3c4c(sc32)N(C(=O)C2CCOC2)CCC4)cc1` (stereo not shown) [Example 175, 6-(4-Methoxybenzyl)-8-(tetrahydrofuran-3-carbonyl)-8,9,10,11-tetrahydropyrido[3′,2′:4,5]thieno[3,2-e][1,2,4]triazolo[1,5-c]pyrimidin-5(6H)-one], the “PDE1b (pEC50)” value is on record as greater than 7.

`COc1ccc(Cn2c(=O)n3ncnc3c3c4c(sc32)CN(c2ccccn2)CC4)cc1` [Example 179, 6-(4-Methoxybenzyl)-9-(pyridin-2-yl)-8,9,10,11-tetrahydropyrido[4′,3′:4,5]thieno[3,2-e][1,2,4]triazolo[1,5-c]pyrimidin-5(6H)-one]: the “PDE1b (pEC50)” value is recorded as greater than 7.

On to `COc1ccc(Cn2c(=O)n3ncnc3c3cc(CN4CCN(c5ccccc5F)CC4)sc32)cc1` [Example 186, 8-((4-(2-Fluorophenyl)piperazin-1-yl)methyl)-6-(4-methoxybenzyl)thieno[3,2-e][1,2,4]triazolo[1,5-c]pyrimidin-5(6H)-one], for which the “PDE1b (pEC50)” value was greater than 7.

For the compound `COc1ccc(Cn2c(=O)n3ncnc3c3cc(CN4CCN(c5cccc(F)c5)CC4)sc32)cc1` [Example 187, 8-((4-(3-Fluorophenyl)piperazin-1-yl)methyl)-6-(4-methoxybenzyl)thieno[3,2-e][1,2,4]triazolo[1,5-c]pyrimidin-5(6H)-one], the “PDE1b (pEC50)” value is reported as greater than 7.

In the case of `COc1ccc(Cn2c(=O)n3ncnc3c3c(CN4CCC(Oc5ccccc5)C4)csc32)cc1` (stereo not shown) [Example 189, 6-(4-Methoxybenzyl)-9-((3-phenoxypyrrolidin-1-yl)methyl)thieno[3,2-e][1,2,4]triazolo[1,5-c]pyrimidin-5(6H)-one], the “PDE1b (pEC50)” value is recorded as greater than 7.

For the compound `COc1ccc(Cn2c(=O)n3ncnc3c3cc(CN4CCC(N5CCOCC5)CC4)sc32)cc1` [Example 191], the “PDE1b (pEC50)” value is on record as greater than 7.
